Patent US9234006B2, “Compounds” (Novacta Biosystems Limited, priority 2011, dated 2016)
Where a name gives a salt, the structure may show the parent alone. Where a SMILES comes first, the peptide text is derived from it. Bridges are numbered along the chain shown (N, C = ends). [ ]: non-standard residue; d: D form. The star is where a group is joined. ξ: configuration not given here. Thr(3ξ) = CC(O)[C@H](N)C(=O)O; Dab = NCC[C@H](N)C(=O)O; Aoc = NCCCCCCCC(=O)O; X2 = NC1CCCC1C(=O)*; X4 = CN(C)CCCC(=O)*; Ahx = NCCCCCC(=O)O; X3 = O=C(C1CCNC1)*

Assays:
Experiment in all cases: MIC susceptibility testing, broth microdilution in CaMHB
K. pneumoniae ATCC 4352 = format: cell-based, Klebsiella pneumoniae
Protocol: (§1) To evaluate the potency and spectrum of the compounds, susceptibility testing was performed against four strains of each of the four Gram negative pathogens, Escherichia coli, Pseudomonas aeruginosa, Klebsiella pneumoniae and Acinetobacter baumannii.
(§2) The day before testing, 3 to 4 colonies were picked from fresh Mueller-Hinton Agar (MHA) plate and transferred into 10 mL of Cation adjusted MHB (CaMHB). Cultures were incubated at 37° C. 250 rpm for 18-20 hours before being diluted 100-fold in fresh CaMHB. The subcultures were grown further until the OD600 reached 0.2-0.3 corresponding to […]. The actively growing cultures were diluted 100-fold in fresh medium and used for the inoculum.
(§3) The assays were performed in duplicate.
(§4) Data was obtained under similar conditions to Table 4 except that different batches of cation-adjusted Muller-Hinton broth were used. The MIC values for these compounds are compared with those values obtained for Polymyxin B, Colistin Sulphate, CB-182,804 and NAB739 (as the TFA salt). CB-182,804 is a polymyxin decapeptide derivative with an aryl urea substituent at the N-terminus, which has been claimed to have lower toxicity than Polymyxin B (compound 5 in WO 2010/075416. See page 37). NAB739 has been described previously by Vaara et al.

[1] = test system: K. pneumoniae ATCCBAA-1706; format: cell-based, Klebsiella pneumoniae
Protocol: as §1, §2, §3, §4

K. pneumoniae NCTC8172 = format: cell-based, Klebsiella pneumoniae
Protocol: as §1, §2, §3, §4

K. pneumoniae NCTC7427 = format: cell-based, Klebsiella pneumoniae
Protocol: as §1, §2, §3, §4

A. baumannii ATCC19606 = format: cell-based, Acinetobacter baumannii
Protocol: as §1, §2, §3, §4

A. baumannii NCTC13423 = format: cell-based, Acinetobacter baumannii
Protocol: as §1, §2, §3, §4

A. baumannii ATCCBAA-747 = format: cell-based, Acinetobacter baumannii
Protocol: as §1, §2, §3, §4

A. baumannii NCTC7844 = format: cell-based, Acinetobacter baumannii
Protocol: as §1, §2, §3, §4

P. aeruginosa ATCC27853 = format: cell-based, Pseudomonas aeruginosa
Protocol: as §1, §2, §3, §4

P. aeruginosa ATCC 9721 = format: cell-based, Pseudomonas aeruginosa; settings: P. aeruginosa ATCC 9721; Table 4
Protocol: as §1, §2, §3, §4

P. aeruginosa ATCC10145 = format: cell-based, Pseudomonas aeruginosa
Protocol: as §1, §2, §3, §4

[2] = test system: P. aeruginosa ATCCCRM-9027; format: cell-based, Pseudomonas aeruginosa
Protocol: as §1, §2, §3, §4

E. coli NCTC12900 = format: cell-based, Escherichia coli
Protocol: as §1, §2, §3, §4

E. coli ATCC700928 = format: cell-based, Escherichia coli
Protocol: as §1, §2, §3, §4

E. coli ATCC25922 = format: cell-based, Escherichia coli
Protocol: as §1, §2, §3, §4

E. coli NCTC9001 = format: cell-based, Escherichia coli; settings: Table 4
Protocol: as §1, §2, §3, §4

[3] = K. pneumoniae ATCC 4352, Table 4
[4] = P. aeruginosa ATCCCRM-9027, Table 4
[5] = Table 4A, different batches of cation-adjusted Muller-Hinton broth

| SMILES | MIC (K. pneumoniae ATCC 4352; [3]) [micrograms/mL] | MIC ([1]; Table 4) [micrograms/mL] | MIC (K. pneumoniae NCTC8172; Table 4) [micrograms/mL] | MIC (K. pneumoniae NCTC7427; Table 4) [micrograms/mL] | MIC (A. baumannii ATCC19606; Table 4) [micrograms/mL] | MIC (A. baumannii NCTC13423; Table 4) [micrograms/mL] | MIC (A. baumannii ATCCBAA-747; Table 4) [micrograms/mL] | MIC (A. baumannii NCTC7844; Table 4) [micrograms/mL] | MIC (P. aeruginosa ATCC27853; Table 4) [micrograms/mL] | MIC (P. aeruginosa ATCC 9721) [micrograms/mL] | MIC (P. aeruginosa ATCC10145; Table 4) [micrograms/mL] | MIC [2, 4] [micrograms/mL] | MIC (E. coli NCTC12900; Table 4) [micrograms/mL] | MIC (E. coli ATCC700928; Table 4) [micrograms/mL] | MIC (E. coli ATCC25922; Table 4) [micrograms/mL] | MIC (E. coli NCTC9001) [micrograms/mL] | other results |
| --- | --- | --- | --- | --- | --- | --- | --- | --- | --- | --- | --- | --- | --- | --- | --- | --- | --- |
| CC(C)C[C@@H]1NC(=O)[C@@H](Cc2ccccc2)NC(=O)[C@H](CCN)NC(=O)[C@@H](NC(=O)[C@H](CCN)NC(=O)[C@@H](NC(=O)CN)C(C)O)CCNC(=O)[C@H](C(C)O)NC(=O)[C@H](CCN)NC(=O)[C@H](CCN)NC1=O (some centres unmarked) [Example 3, 2-Aminoethanoyl Polymyxin B Nonapeptide, Sulphate Salt] (H-G[Thr(3ξ)][Dab][Dab][Dab][dF]L[Dab][Dab][Thr(3ξ)]; lactam 4-C) | 1 | 16 | >32 | 0.5 | 2 | 16 | >32 | 16 | 0.5 | 0.125 | 0.25 | 0.125 | 8 | 4 | 2 | 4 | – |
| CC(C)C[C@@H]1NC(=O)[C@@H](Cc2ccccc2)NC(=O)[C@H](CCN)NC(=O)[C@@H](NC(=O)[C@H](CCN)NC(=O)[C@@H](NC(=O)CCCCCN)C(C)O)CCNC(=O)[C@H](C(C)O)NC(=O)[C@H](CCN)NC(=O)[C@H](CCN)NC1=O (some centres unmarked) [Example 7, 6-Aminohexanoyl Polymyxin B Nonapeptide, Sulphate Salt] (H-[Ahx][Thr(3ξ)][Dab][Dab][Dab][dF]L[Dab][Dab][Thr(3ξ)]; lactam 4-C) | 0.5 | 0.06 | >32 | 0.25 | – | 0.5 | 8 | 16 | 0.5 | – | – | 0.25 | 4 | – | 2 | 8 | – |
| CC(C)C[C@@H]1NC(=O)[C@@H](Cc2ccccc2)NC(=O)[C@H](CCN)NC(=O)[C@@H](NC(=O)[C@H](CCN)NC(=O)[C@@H](NC(=O)CCCCCCCN)C(C)O)CCNC(=O)[C@H](C(C)O)NC(=O)[C@H](CCN)NC(=O)[C@H](CCN)NC1=O (some centres unmarked) [Example 9, 8-Aminooctanoyl Polymyxin B Nonapeptide, Sulphate Salt] (H-[Aoc][Thr(3ξ)][Dab][Dab][Dab][dF]L[Dab][Dab][Thr(3ξ)]; lactam 4-C) | 0.5 | 0.5 | >32 | 0.5 | 16 | >32 | >32 | >32 | 0.5 | 0.5 | 2 | 0.5 | 1 | 1 | 2 | 2 | – |
| CC(C)C[C@@H]1NC(=O)[C@@H](Cc2ccccc2)NC(=O)[C@H](CCN)NC(=O)[C@@H](NC(=O)[C@H](CCN)NC(=O)[C@@H](NC(=O)C2CCCC2N)C(C)O)CCNC(=O)[C@H](C(C)O)NC(=O)[C@H](CCN)NC(=O)[C@H](CCN)NC1=O (stereo partly drawn) [Example 11, (1R,S/2R,S)-2-Aminocyclopentanecarbonyl Polymyxin B Nonapeptide, Sulphate Salt] (X2-[Thr(3ξ)][Dab][Dab][Dab][dF]L[Dab][Dab][Thr(3ξ)]; lactam 3-C) | 0.5 | 0.25 | 2 | 0.25 | 2 | 0.5 | 1 | 4 | 0.125 | 0.25 | 0.25 | 0.125 | 2 | 0.125 | 2 | 0.5 | – |
| CC(C)C[C@@H]1NC(=O)[C@@H](Cc2ccccc2)NC(=O)[C@H](CCN)NC(=O)[C@@H](NC(=O)[C@H](CCN)NC(=O)[C@@H](NC(=O)C2CCNC2)C(C)O)CCNC(=O)[C@H](C(C)O)NC(=O)[C@H](CCN)NC(=O)[C@H](CCN)NC1=O (stereo partly drawn) [Example 13, [3-(R,S)-Pyrrolidine-3-carbonyl] Polymyxin B Nonapeptide, Sulphate Salt] (X3-[Thr(3ξ)][Dab][Dab][Dab][dF]L[Dab][Dab][Thr(3ξ)]; lactam 3-C) | 0.5 | 1 | 4 | 0.25 | 0.5 | 2 | 4 | 4 | 0.25 | 0.125 | 0.5 | 2 | 2 | 0.25 | 0.5 | – | – |
| CC(C)C[C@@H]1NC(=O)[C@@H](Cc2ccccc2)NC(=O)[C@H](CCN)NC(=O)[C@@H](NC(=O)[C@H](CCN)NC(=O)[C@@H](NC(=O)CCCN(C)C)C(C)O)CCNC(=O)[C@H](C(C)O)NC(=O)[C@H](CCN)NC(=O)[C@H](CCN)NC1=O (some centres unmarked) [Example 18, 4-(N,N-dimethylamino)-butanoyl polymyxin B nonapeptide] (X4-[Thr(3ξ)][Dab][Dab][Dab][dF]L[Dab][Dab][Thr(3ξ)]; lactam 3-C) | – | – | – | – | – | – | – | – | – | – | – | – | – | – | – | – | MIC (K. pneumoniae ATCC 4352; K. pneumoniae ATCC4352, Table 4A, different batches of cation-adjusted Muller-Hinton broth): 0.5 micrograms/mL; MIC [1, 5]: 8 micrograms/mL; MIC (K. pneumoniae NCTC8172; [5]): >32 micrograms/mL; MIC (K. pneumoniae NCTC7427; [5]): 0.125 micrograms/mL; MIC (A. baumannii ATCC19606; [5]): 1 micrograms/mL; MIC (A. baumannii NCTC13423; [5]): 4 micrograms/mL; MIC (A. baumannii ATCCBAA-747; [5]): 16 micrograms/mL; MIC (A. baumannii NCTC7844; [5]): 8 micrograms/mL; MIC (P. aeruginosa ATCC27853; [5]): 0.125 micrograms/mL; MIC (P. aeruginosa ATCC10145; [5]): 0.25 micrograms/mL; MIC ([2]; P. aeruginosa AATCCRM 9027, Table 4A, different batches of cation-adjusted Muller-Hinton broth): 2 micrograms/mL; MIC (E. coli NCTC12900; [5]): 4 micrograms/mL; MIC (E. coli ATCC700928; [5]): 0.25 micrograms/mL; MIC (E. coli ATCC25922; [5]): 0.5 micrograms/mL |
